Among the test systems are OVCAR-3 ovarian; MCF7 breast; NCI-H23 lung; BT-549 breast; PC-3 prostate; CAKI-1 renal; RPMI-8226 leukemia; LOX IMVI melanoma; SW-620 colon; SF-268 CNS; HS 578T breast.
Common to all, as to experiment: NCI-60 cell line screen, 48 h

Molecules are shown by their SMILES.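 Values below derive from 48-hour exposures of cells grown in 96-well plates, with endpoints linearly interpolated between the two concentrations bracketing the appropriate inhibition level. TGI: total growth inhibition.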

Regarding `Cc1nc2ccc(S(=O)(=O)Nc3ccccc3Cl)cc2c(=O)n1NC(=O)CNc1ccccc1Cl`, the TGI in the experiment on OVCAR-3 ovarian, with MCF7 breast, with NCI-H23 lung, in the experiment on BT-549 breast, in the experiment with PC-3 prostate and in the experiment on CAKI-1 renal was above 100 µM in each case. Further, the TGI in the experiment with RPMI-8226 leukemia, in the experiment on LOX IMVI melanoma, in the experiment with SW-620 colon, with SF-268 CNS and with HS 578T breast was above 100 µM throughout.

For `Nc1nc(Sc2ccc([N+](=O)[O-])cn2)c2[nH]cnc2n1`, the TGI was above 75 µM in the experiment on OVCAR-3 ovarian; above 100 µM in the experiment on MCF7 breast; 31.2 µM in the experiment with NCI-H23 lung; 52.1 µM in the experiment with BT-549 breast; 47.6 µM in the experiment on PC-3 prostate; 71.7 µM with CAKI-1 renal. Also, the TGI in the experiment on RPMI-8226 leukemia was above 100 µM; in the experiment with LOX IMVI melanoma, 17.1 µM; with SW-620 colon, above 100 µM; in the experiment on SF-268 CNS, above 100 µM; in the experiment on HS 578T breast, 77.8 µM.

Regarding `Cc1cn(C2CC(N=[N+]=[N-])C(CO)O2)c(=O)n(CCCCO)c1=O` (stereo unspecified), the TGI in the experiment with OVCAR-3 ovarian, in the experiment on MCF7 breast, in the experiment with NCI-H23 lung, with BT-549 breast, in the experiment on PC-3 prostate and in the experiment with CAKI-1 renal was above 100 µM each time. Also, the TGI in the experiment on RPMI-8226 leukemia, with LOX IMVI melanoma, with SW-620 colon, in the experiment on SF-268 CNS and in the experiment with HS 578T breast was above 100 µM in each case.

Take `COC(=O)c1c2c(cc3c1CC1(C3)Cc3ccc4c(c3C1=O)CCC4)CCC2` (stereo unspecified): the TGI in the experiment with OVCAR-3 ovarian was above 31.5 µM; in the experiment with MCF7 breast, above 66.7 µM; in the experiment on NCI-H23 lung it was above 31.6 µM; in the experiment on BT-549 breast it was above 42.9 µM; in the experiment with PC-3 prostate, above 24.4 µM; in the experiment on CAKI-1 renal, 21.2 µM. Further, the TGI was above 72.6 µM in the experiment with RPMI-8226 leukemia; above 58.1 µM with LOX IMVI melanoma; above 100 µM in the experiment with SW-620 colon; above 100 µM with SF-268 CNS; 6.62 µM with HS 578T breast.

On to `CSc1n[nH]c2n[nH]c(C)c12`, for which the TGI in the experiment with OVCAR-3 ovarian, with MCF7 breast, with NCI-H23 lung, with BT-549 breast, with PC-3 prostate and in the experiment on CAKI-1 renal was above 100 µM in each case. For the same compound, the TGI with RPMI-8226 leukemia, in the experiment with LOX IMVI melanoma, in the experiment with SW-620 colon, with SF-268 CNS and with HS 578T breast was above 100 µM each time.

For `CC(=O)OC(C#N)CC(C)(C)/[N+]([O-])=[N+](\[O-])C(C)(C)CC(C#N)OC(C)=O` (stereo unspecified), the TGI in the experiment on OVCAR-3 ovarian is 40 µM; in the experiment on MCF7 breast, above 100 µM; with NCI-H23 lung it was 34 µM; with BT-549 breast it was 36.6 µM; in the experiment on PC-3 prostate, 37.9 µM; in the experiment on CAKI-1 renal, 30.7 µM. The TGI with RPMI-8226 leukemia came out at 40.2 µM; with LOX IMVI melanoma it was 28.8 µM; with SW-620 colon, 30.2 µM; in the experiment with SF-268 CNS, 42.2 µM; with HS 578T breast, 55.2 µM.

(Values after PubChem BioAssay (NCI).)
